# Where two headings read alike, the source gives them in different places.
# Experiments:
# MDA-MB-468 = experiment: Akt phosphorylation inhibition in MDA-MB-468 cells (high expression of PI3Kβ); format: cell-based; conditions: MDA-MB-468 cell line with high expression of PI3Kβ
# [1] = test system: HR+/HER2+ human breast cancer BT-474 (PIK3CA amplified); experiment: In vivo pharmacodynamic study, BT-474 nude mouse subcutaneous xenograft tumor model; parameters: species or system BALB/c nude mice
# Experimental: The phenotype of human BT-474 breast cancer cells is HR+/HER2+, and it has PIK3CA amplification. This experiment evaluated the efficacy of the crystal form A of the compound represented by formula (I) in a human breast cancer xenograft tumor model, using BYL-719 as a reference.
# Cell culture: Human breast cancer BT474 cells were cultured in vitro in a single layer, the culture condition was Hybri-Care medium with 10% fetal bovine serum and the cells were incubated in 5% CO2 at 37° C. Digestion and passage treatment with trypsin-EDTA was carried out twice a week. When the cell saturation was 80%-90% and the number reached the requirement, the cells were collected, counted and inoculated.
# Animals: BALB/c nude mice, female, 6-8 weeks old, weighing 18-20 g. A total of 85 animals were required, and provided by Shanghai Bikai experimental animal Co., Ltd.
# Tumor inoculation: Estrogen tablets (0.36 mg/tablet) were subcutaneously inoculated on the left back of each mouse, three days later, 0.2 mL (10×10^6 cells) of BT474 cells (with matrigel in a volume ratio of 1:1) were subcutaneously inoculated on the right back of each mouse, group administration was started when the average tumor volume reached 150 mm^3−200 mm^3.
# Tumor-bearing mice in each administration group had good tolerance to the tested compounds.
# [2] = Beagle dog absorption test (pharmacokinetics); format: in vivo, Beagle dogs
# Experimental: Beagle dogs were given the crystal form A of the compound represented by formula (I) by single or multiple oral administration and single intravenous injection respectively, with 6 dogs in each group, half male and half female. The single oral doses were 0.3, land 3 mg/kg respectively; the multiple doses were 1 mg/kg, once a day for 7 consecutive days; the single intravenous dose was 0.3 mg/kg. According to the drug plasma concentration-time curve, the pharmacokinetic parameters were calculated, the results are shown in Table 15. The vehicle for drug preparation in group 1 was 5% HP-beta-CD, 5% solutol, pH=8 aqueous solution, the vehicles for groups 2, 3, 4 were 0.5% MC, 0.2% Tween80 aqueous solution.
# [3] = 10 mg/kg, oral once a day for 20 days
# [4] = 10 mg/kg, oral once a day for 20 days, listed as crystal form A of the compound represented by formula (I)
# [5] = 20 mg/kg, oral once a day for 20 days
# [6] = 20 mg/kg, oral once a day for 20 days, listed as crystal form A of the compound represented by formula (I)
# [7] = 40 mg/kg, oral once a day for 20 days
# [8] = 40 mg/kg, oral once a day for 20 days, listed as crystal form A of the compound represented by formula (I)
# [9] = both sexes, beagle, dog, plasma, po, 0.3 mg/kg, male and female Beagle dogs, single
# [10] = both sexes, dog, plasma, iv, male and female Beagle dogs, vein, 0.3 mg/kg, single
# [11] = both sexes, dog, plasma, male and female Beagle dogs, oral, 0.3 mg/kg, single
# [12] = both sexes, dog, plasma, male and female Beagle dogs, oral, 1 mg/kg once a day, day 7
# [13] = both sexes, dog, plasma, male and female Beagle dogs, oral, 1 mg/kg, day 1
# [14] = both sexes, dog, plasma, male and female Beagle dogs, oral, 3 mg/kg, single
# [15] = male and female beagle dogs, oral, 1 mg/kg for 7 consecutive days, 7 days after the administration
# [16] = male and female beagle dogs, oral, 1 mg/kg, 1 day after the administration
smiles,measurement,setting,value
CNC(=O)[C@H](C)Cn1cnc2ccc(-c3cnc(OC)c(NS(=O)(=O)c4ccc(F)cc4F)c3)cc2c1=O,"Selectivity PI3Kα over PI3Kβ, Akt phosphorylation inhibitory activity in cells",MDA-MB-468,195 times
same,Anti-tumor effect (in words),[1]; 10 mg/kg group,strong anti-tumor effect
same,T/C %,[1]; [3],50.18%
same,TGI %,[1]; [3],65.34%
same,T/C %,[1]; [4],50.18%
same,TGI %,[1]; [4],65.34%
same,Anti-tumor effect (in words),[1]; 20 mg/kg group,strong anti-tumor effect
same,T/C %,[1]; [5],37.92%
same,TGI %,[1]; [5],80.21%
same,T/C %,[1]; [6],37.92%
same,TGI %,[1]; [6],80.21%
same,Anti-tumor effect (in words),[1]; 40 mg/kg group,significant anti-tumor effects
same,T/C %,[1]; [7],21.16%
same,TGI %,[1]; [7],105.65%
same,T/C %,[1]; [8],21.16%
same,TGI %,[1]; [8],105.65%
same,Dose to play the effect,[1]; oral once a day for 20 days,10 mg/kg
same,AUC(0-t),"[2]; both sexes, beagle, dog, plasma, iv, 0.3 mg/kg, male and female Beagle dogs, vein, single",1.47 ± 0.353 µM·h
same,AUC(0-t),[2]; [9],1.29 ± 0.715 µM·h
same,bioavailability,[2]; [9],87.8%
same,AUC(0-t),"[2]; both sexes, beagle, dog, plasma, po, 1 mg/kg, male and female Beagle dogs, oral, 1 mg/kg once a day, day 7",5.88 µM·h
same,AUC(0-t),"[2]; both sexes, beagle, dog, plasma, po, 1 mg/kg, male and female Beagle dogs, oral, 1 mg/kg, day 1",4.98 ± 0.946 µM·h
same,AUC(0-t),"[2]; both sexes, beagle, dog, plasma, po, 3 mg/kg, male and female Beagle dogs, single",14.8 ± 2.51 µM·h
same,C0,[2]; [10],0.512 µM
same,clearance,[2]; [10],0.371 ± 0.0894 L/h/kg
same,half-life,[2]; [10],6.32 ± 1.62 h
same,Vd,"[2]; both sexes, dog, plasma, iv, male and female Beagle dogs, vein, 0.3 mg/kg, single, read-out: Vdss",2.47 ± 0.391 L/kg
same,Tmax,[2]; [11],2 ± 1.1 h
same,half-life,[2]; [11],6.92 ± 3.16 h
same,Cmax,"[2]; both sexes, dog, plasma, male and female Beagle dogs, oral, 0.3 mg/kg, single, read-out: Cmax",0.158 ± 0.0684 µM
same,Cmax at 7 days,[2]; [12],0.85 µM
same,Tmax at 7 days,[2]; [12],1.33 h
same,half-life at 7 days,[2]; [12],5.18 ± 0.487 h
same,Tmax,[2]; [13],1.67 ± 0.516 h
same,half-life,[2]; [13],5 ± 1.44 h
same,Cmax,"[2]; both sexes, dog, plasma, male and female Beagle dogs, oral, 1 mg/kg, day 1, read-out: Cmax",0.656 ± 0.0307 µM
same,Tmax,[2]; [14],3.08 ± 1.5 h
same,half-life,[2]; [14],6.55 ± 1.76 h
same,Cmax,"[2]; both sexes, dog, plasma, male and female Beagle dogs, oral, 3 mg/kg, single, read-out: Cmax",1.88 ± 0.274 µM
same,AUC0-last,[2]; [15],5.88 ± 0.697 µM·h
same,Cmax,[2]; [15],850±106 nm
same,AUC0-last,[2]; [16],4.98 ± 0.946 µM·h
same,Cmax,[2]; [16],656±30.7 nm

# From US20220213060A1, “Crystal Form of Quinazolinone Compound and Preparation Method Therefor” (Luoxin Healthcare Science and Technology Development …, priority 2019, published 2022)
